Data on 39 molecules can be found in patent US20130116287A1 (priority 2010, published 2013).

Values joined by “and” are separate entries in the source; they are usually repeats but may differ in a detail not shown here. Equal values may be shown once.

Data set [1] is described as follows: Measurement of logP values by HPLC on reversed phase columns (EEC directive 79/831 Annex V.A8). Type of data set: physicochemical. Conditions: HPLC; for Log P: pH 2.7, 0.1% formic acid in water / acetonitrile, single value.
A further data set has as its system Phytophthora infestans. It counts as in vivo. The settings on record: 500 ppm of active ingredient; tomato, preventive; evaluated 7 days after inoculation; 100% = no disease.
The next data set has as its system Plasmopara viticola. In words: Plasmopara test (grapevines) / preventive. The settings on record: 100 ppm of active ingredient, evaluated 6 days after inoculation, 100% = no disease. It counts as in vivo. As to the method:
Plasmopara Test (Grapevines)/Preventive
Solvent: 24.5 parts by weight of acetone
24.5 parts by weight of dimethylacetamide
Emulsifier: 1 part by weight of alkylaryl polyglycol ether
To produce a suitable preparation of active compound, 1 part by weight of active compound is mixed with the stated amounts of solvent and emulsifier, and the concentrate is diluted with water to the desired concentration.
To test for preventive activity, young plants are sprayed with the preparation of active compound at the stated rate of application. After the spray coating has dried on, the plants are inoculated with an aqueous spore suspension of Plasmopara viticola and then remain for 1 day in an incubation cabinet at approximately 20° C. and a relative atmospheric humidity of 100%. The plant is subsequently placed for 4 days in a greenhouse at approximately 21° C. and a relative atmospheric humidity of approximately 90%. The plants are then misted and placed for 1 day in an incubation cabinet.
The test is evaluated 6 days after the inoculation. 0% means an efficacy which corresponds to that of the untreated control, while an efficacy of 100% means that no disease is observed.

As to `Cc1snnc1C(=NOCc1cccc(NC(=O)CSc2ccccc2)n1)c1ccccc1` (mixture of isomers) [Example 6], in data set [1] (pH 2.7, 0.1% formic acid), the “Log P [I2] minor isomer” value is 4.09. In addition, the efficacy with Phytophthora infestans is 98%; with Plasmopara viticola, 86%.
In the case of `Cc1snnc1C(=NOCc1csc(NC(=O)COc2ccccc2)n1)c1ccccc1` (mixture of isomers) [Example 7], the “Log P (two values printed, isomers not assigned)” value in data set [1] (pH 2.7, 0.1% formic acid, two values without isomer tag) was 3.71 and 3.83. Also, the efficacy turned out to be 100% in the data set on Phytophthora infestans and 88% with Plasmopara viticola.
As to `Cc1snnc1C(=NOCc1csc(NC(=O)COCc2ccccc2)n1)c1ccccc1` (mixture of isomers) [Example 28], the “Log P [I1] main isomer” value in data set [1] (pH 2.7, 0.1% formic acid, main isomer) is reported as 3.96. The “Log P [I2] minor isomer” value in data set [1] (pH 2.7, 0.1% formic acid) is listed as 3.85. The efficacy in the data set with Phytophthora infestans was determined as 100%; in the data set on Plasmopara viticola, 93%.
For the molecule `CCOC(C)(C)C(=O)Nc1nc(CON=C(c2ccccc2)c2nnsc2C)cs1` [Example 61], in data set [1], the “Log P” value is given as 3.94. Further, the efficacy in the data set on Phytophthora infestans is 100%.
The like results for `CCOC(C)(C)C(=O)Nc1cccc(CON=C(c2ccccc2)c2nnsc2C)n1` [Example 62] were, in that order, 4.34 and 95%.
`Cc1snnc1C(=NOCc1cccc(NC(=O)COCC(C)C)n1)c1ccccc1` [Example 64]: the “Log P” value in data set [1] is recorded as 4.44. The molecule further returned an efficacy in the data set on Phytophthora infestans of 98%.
For `Cc1snnc1C(=NOCc1cccc(NC(=O)COC(C)C)n1)c1ccccc1` [Example 66] the same measures were 3.94 and 93%.
The like results for `Cc1snnc1C(=NOCc1csc(NC(=O)CSCCC(C)C)n1)c1ccccc1` [Example 67] were, in that order, 4.41 and 95%.
For `Cc1snnc1C(=NOCc1csc(NC(=O)COCC2CCCCC2)n1)c1ccccc1` [Example 69] the same measures were 4.93 and 97%.
In the case of `Cc1snnc1C(=NOCc1cccc(NC(=O)COCC2CCCCC2)n1)c1ccccc1` [Example 70], the “Log P” value in data set [1] is listed as 5.45. For the same molecule, the efficacy in the data set on Phytophthora infestans was 89%.
On to `Cc1snnc1C(=NOCc1csc(NC(=O)COCC2CCCCO2)n1)c1ccccc1` (stereo not shown) [Example 71], for which the “Log P” value in data set [1] came to 3.76. Moreover, in the data set on Phytophthora infestans, the efficacy was 90%.
The like results for `Cc1snnc1C(=NOCc1cccc(NC(=O)COCC2CCCCO2)n1)c1ccccc1` (stereo not shown) [Example 72] were, in that order, 3.92 and 75%.
Regarding `Cc1snnc1C(=NOCc1csc(NC(=O)C(C)OCC2CCCCC2)n1)c1ccccc1` (stereo not shown) [Example 73], the log partition coefficient (Log P) in data set [1] was 5.35. The molecule also showed an efficacy with Phytophthora infestans of 100%.
The like results for `Cc1snnc1C(=NOCc1cccc(NC(=O)C(C)OCC2CCCCC2)n1)c1ccccc1` (stereo not shown) [Example 74] were, in that order, 5.87 and 94%.
For `Cc1snnc1C(=NOCc1csc(NC(=O)C(C)OCC2CCCC2)n1)c1ccccc1` (stereo not shown) [Example 75] the same measures were 4.9 and 100%.
For `Cc1snnc1C(=NOCc1cccc(NC(=O)C(C)OCC2CCCC2)n1)c1ccccc1` (stereo not shown) [Example 76] the same measures were 5.39 and 97%.
On to `Cc1snnc1C(=NOCc1csc(NC(=O)COCCC2CCCC2)n1)c1ccccc1` [Example 77], for which the “Log P” value in data set [1] is listed as 4.91. In the data set with Phytophthora infestans, this molecule returned an efficacy of 95%.
For the molecule `Cc1snnc1C(=NOCc1cccc(NC(=O)COCCC2CCCC2)n1)c1ccccc1` [Example 78], in data set [1], the “Log P” value worked out at 5.39. For the same molecule, the efficacy with Phytophthora infestans is 89%.
For `Cc1snnc1C(=NOCc1csc(NC(=O)COCCC2CCCCC2)n1)c1ccccc1` [Example 83] the same measures were 5.28 and 95%.
Consider `Cc1snnc1C(=NOCc1cccc(NC(=O)COCCC2CCCCC2)n1)c1ccccc1` [Example 84], for which the “Log P” value in data set [1] worked out at 5.81. In the data set on Phytophthora infestans, this molecule came in with an efficacy of 75%.
`Cc1snnc1C(=NOCc1csc(NC(=O)C(C)OCC(C)C)n1)c1ccccc1` (stereo not shown) [Example 85]: the efficacy in the data set with Phytophthora infestans is recorded as 95%; in the data set with Plasmopara viticola it was 73%.
`Cc1snnc1C(=NOCc1cccc(NC(=O)C(C)OCC(C)C)n1)c1ccccc1` (stereo not shown) [Example 86]: the “Log P” value in data set [1] is on record as 4.83. In the data set on Phytophthora infestans, this molecule returned an efficacy of 95%.
The like results for `Cc1snnc1C(=NOCc1csc(NC(=O)CSC2CCCCC2)n1)c1ccccc1` [Example 87] were, in that order, 4.46 and 97%.
The like results for `Cc1snnc1C(=NOCc1cccc(NC(=O)CSC2CCCCC2)n1)c1ccccc1` [Example 88] were, in that order, 4.87 and 97%.
The like results for `C=CCSCC(=O)Nc1nc(CON=C(c2ccccc2)c2nnsc2C)cs1` [Example 91] were, in that order, 3.52 and 95%.
For `C=CCSCC(=O)Nc1cccc(CON=C(c2ccccc2)c2nnsc2C)n1` [Example 92], in data set [1], the “Log P” value came out at 3.79. Besides, in the data set with Phytophthora infestans, the efficacy came to 90%.
As to `Cc1snnc1C(=NOCc1cccc(NC(=O)C(C)OCc2ccccc2)n1)c1ccccc1` (stereo not shown) [Example 94], the “Log P” value in data set [1] is 4.58. The molecule also displayed an efficacy in the data set with Phytophthora infestans of 95%.
The like results for `Cc1snnc1C(=NOCc1csc(NC(=O)C(C)Oc2ccc(F)cc2)n1)c1ccccc1` (stereo not shown) [Example 95] were, in that order, 4.06 and 100%.
For `Cc1snnc1C(=NOCc1csc(NC(=O)C(C)SCc2ccccc2)n1)c1ccccc1` (stereo not shown) [Example 98], the “Log P” value in data set [1] was 4.26. The molecule further yielded an efficacy with Phytophthora infestans of 98%.
For `Cc1snnc1C(=NOCc1cccc(NC(=O)C(C)SCc2ccccc2)n1)c1ccccc1` (stereo not shown) [Example 99] the same measures were 4.58 and 100%.
Regarding `Cc1snnc1C(=NOCc1csc(NC(=O)C(C)(C)Oc2ccccc2)n1)c1ccccc1` [Example 102], in data set [1], the “Log P” value is listed as 4.53. For the same molecule, the efficacy in the data set with Phytophthora infestans is given as 100%.
For `Cc1snnc1C(=NOCc1cccc(NC(=O)C(C)(C)Oc2ccccc2)n1)c1ccccc1` [Example 103] the same measures were 4.93 and 100%.
For `C#CCOC(CC)C(=O)Nc1nc(CON=C(c2ccccc2)c2nnsc2C)cs1` (stereo not shown) [Example 104] the same measures were 3.61 and 98%.
For `C#CCOC(CC)C(=O)Nc1cccc(CON=C(c2ccccc2)c2nnsc2C)n1` (stereo not shown) [Example 105] the same measures were 3.9 and 95%.
Turning to `Cc1snnc1C(=NOCc1csc(NC(=O)CSC2CCCC2)n1)c1ccccc1` [Example 106], in data set [1], the “Log P” value was 4.14. For the same molecule, in the data set with Phytophthora infestans, the efficacy turned out to be 92%.
The like results for `Cc1snnc1C(=NOCc1cccc(NC(=O)CSC2CCCC2)n1)c1ccccc1` [Example 107] were, in that order, 4.51 and 92%.
Turning to `Cc1snnc1C(=NOCc1csc(NC(=O)COCC2CCCC2)n1)c1ccccc1` [Example 108], the “Log P” value in data set [1] is 4.53. In the data set on Phytophthora infestans, this molecule returned an efficacy of 100%.
The like results for `Cc1snnc1C(=NOCc1cccc(NC(=O)COCC2CCCC2)n1)c1ccccc1` [Example 109] were, in that order, 5.01 and 89%.
In the case of `CC(=NOCC(=O)Nc1cccc(CON=C(c2ccccc2)c2nnsc2C)n1)c1ccccc1` [Example 112], the “Log P” value in data set [1] is 4.51. For the same molecule, the efficacy with Phytophthora infestans is 95%.

As a reminder, the Log P is a log measure of how a compound divides between an organic and an aqueous phase. High values mean higher lipophilicity, low ones lower lipophilicity.
